Active and inactive are the calls of the source. The calls are words filed in the database; no cut-off is given here.
Tests used:
[1] = molecular target: Serine/threonine-protein kinase ATR (Homo sapiens) (UniProt Q13535); experiment: Inhibition of ATR in human U2OS cells assessed as reduction in hydroxyurea-induced H2AX phosphorylation at Ser139 residue at 3 to 10 uM preincubated for 1 hr followed by hydroxyurea challenge measured after 2 hrs by Western blot analysis; assay type: cell-based
[2] = molecular target: Serine-protein kinase ATM (Homo sapiens) (UniProt Q13315); experiment: Inhibition of ATM in human U2OS cells assessed as reduction in hydroxyurea-induced H2AX phosphorylation at Ser139 residue at 3 to 10 uM preincubated for 1 hr followed by hydroxyurea challenge measured after 2 hrs by Western blot analysis; assay type: cell-based
[3] = molecular target: Serine/threonine-protein kinase ATR (Homo sapiens) (UniProt Q13535); experiment: Inhibition of ATR in human U2OS cells assessed as reduction in hydroxyurea-induced Chk-1 phosphorylation at Ser345 residue preincubated for 1 hr followed by hydroxyurea challenge measured after 2 hrs by Western blot analysis; assay type: cell-based
[4] = molecular target: Serine/threonine-protein kinase ATR (Homo sapiens) (UniProt Q13535); experiment: Inhibition of ATR in human U2OS cells assessed as reduction in hydroxyurea-induced Chk-1 phosphorylation at Ser345 residue by measuring ratio of GAPDH level to phosphorylated Chk-1 level at 3 uM preincubated for 1 hr followed by hydroxyurea challenge measured after 2 hrs by Western blot analysis; assay type: cell-based
[5] = molecular target: Serine/threonine-protein kinase ATR (Homo sapiens) (UniProt Q13535); experiment: Inhibition of ATR in human Ramos cells assessed as reduction in […] at 10 uM after 48 hrs by Western blot analysis; assay type: cell-based
[6] = molecular target: Serine/threonine-protein kinase ATR (Homo sapiens) (UniProt Q13535); experiment: Inhibition of ATR in human U2OS cells assessed as reduction in hydroxyurea-induced Chk-1 phosphorylation at Ser345 residue by measuring ratio of GAPDH level to phosphorylated Chk-1 level at 10 uM preincubated for 1 hr followed by hydroxyurea challenge measured after 2 hrs by Western blot analysis; assay type: cell-based
[7] = molecular target: Serine-protein kinase ATM (Homo sapiens) (UniProt Q13315); experiment: Inhibition of ATM in human U2OS cells assessed as reduction in etoposide-induced Chk-2 phosphorylation at Thr68 residue at 10 uM preincubated for 1 hr followed by etoposide challenge measured after 20 mins by Western blot analysis; assay type: cell-based
[8] = molecular target: Serine-protein kinase ATM (Homo sapiens) (UniProt Q13315); experiment: Inhibition of ATM in human U2OS cells assessed as reduction in hydroxyurea-induced Chk-2 phosphorylation at Thr68 residue at 10 uM preincubated for 1 hr followed by hydroxyurea challenge measured after 1 hr by Western blot analysis; assay type: cell-based
Ramos = experiment: Induction of apoptosis in human Ramos cells assessed as increase PARP-1 cleavage at 10 uM after 48 hrs by Western blot analysis; assay type: functional, cell-based
[9] = molecular target: Serine/threonine-protein kinase ATR (Homo sapiens) (UniProt Q13535); experiment: Inhibition of ATR in human U2OS cells assessed as reduction in hydroxyurea-induced Chk-1 phosphorylation at Ser345 residue at 10 uM preincubated for 1 hr followed by hydroxyurea challenge measured after 1 hr by Western blot analysis; assay type: cell-based
[10] = molecular target: Serine/threonine-protein kinase ATR (Homo sapiens) (UniProt Q13535); experiment: Inhibition of ATR in human U2OS cells assessed as reduction in etoposide-induced Chk-1 phosphorylation at Ser345 residue at 10 uM preincubated for 1 hr followed by etoposide challenge measured after 20 mins by Western blot analysis; assay type: cell-based

Chain of Serine/threonine-protein kinase ATR (Homo sapiens) (Q13535 whole entry, looked up): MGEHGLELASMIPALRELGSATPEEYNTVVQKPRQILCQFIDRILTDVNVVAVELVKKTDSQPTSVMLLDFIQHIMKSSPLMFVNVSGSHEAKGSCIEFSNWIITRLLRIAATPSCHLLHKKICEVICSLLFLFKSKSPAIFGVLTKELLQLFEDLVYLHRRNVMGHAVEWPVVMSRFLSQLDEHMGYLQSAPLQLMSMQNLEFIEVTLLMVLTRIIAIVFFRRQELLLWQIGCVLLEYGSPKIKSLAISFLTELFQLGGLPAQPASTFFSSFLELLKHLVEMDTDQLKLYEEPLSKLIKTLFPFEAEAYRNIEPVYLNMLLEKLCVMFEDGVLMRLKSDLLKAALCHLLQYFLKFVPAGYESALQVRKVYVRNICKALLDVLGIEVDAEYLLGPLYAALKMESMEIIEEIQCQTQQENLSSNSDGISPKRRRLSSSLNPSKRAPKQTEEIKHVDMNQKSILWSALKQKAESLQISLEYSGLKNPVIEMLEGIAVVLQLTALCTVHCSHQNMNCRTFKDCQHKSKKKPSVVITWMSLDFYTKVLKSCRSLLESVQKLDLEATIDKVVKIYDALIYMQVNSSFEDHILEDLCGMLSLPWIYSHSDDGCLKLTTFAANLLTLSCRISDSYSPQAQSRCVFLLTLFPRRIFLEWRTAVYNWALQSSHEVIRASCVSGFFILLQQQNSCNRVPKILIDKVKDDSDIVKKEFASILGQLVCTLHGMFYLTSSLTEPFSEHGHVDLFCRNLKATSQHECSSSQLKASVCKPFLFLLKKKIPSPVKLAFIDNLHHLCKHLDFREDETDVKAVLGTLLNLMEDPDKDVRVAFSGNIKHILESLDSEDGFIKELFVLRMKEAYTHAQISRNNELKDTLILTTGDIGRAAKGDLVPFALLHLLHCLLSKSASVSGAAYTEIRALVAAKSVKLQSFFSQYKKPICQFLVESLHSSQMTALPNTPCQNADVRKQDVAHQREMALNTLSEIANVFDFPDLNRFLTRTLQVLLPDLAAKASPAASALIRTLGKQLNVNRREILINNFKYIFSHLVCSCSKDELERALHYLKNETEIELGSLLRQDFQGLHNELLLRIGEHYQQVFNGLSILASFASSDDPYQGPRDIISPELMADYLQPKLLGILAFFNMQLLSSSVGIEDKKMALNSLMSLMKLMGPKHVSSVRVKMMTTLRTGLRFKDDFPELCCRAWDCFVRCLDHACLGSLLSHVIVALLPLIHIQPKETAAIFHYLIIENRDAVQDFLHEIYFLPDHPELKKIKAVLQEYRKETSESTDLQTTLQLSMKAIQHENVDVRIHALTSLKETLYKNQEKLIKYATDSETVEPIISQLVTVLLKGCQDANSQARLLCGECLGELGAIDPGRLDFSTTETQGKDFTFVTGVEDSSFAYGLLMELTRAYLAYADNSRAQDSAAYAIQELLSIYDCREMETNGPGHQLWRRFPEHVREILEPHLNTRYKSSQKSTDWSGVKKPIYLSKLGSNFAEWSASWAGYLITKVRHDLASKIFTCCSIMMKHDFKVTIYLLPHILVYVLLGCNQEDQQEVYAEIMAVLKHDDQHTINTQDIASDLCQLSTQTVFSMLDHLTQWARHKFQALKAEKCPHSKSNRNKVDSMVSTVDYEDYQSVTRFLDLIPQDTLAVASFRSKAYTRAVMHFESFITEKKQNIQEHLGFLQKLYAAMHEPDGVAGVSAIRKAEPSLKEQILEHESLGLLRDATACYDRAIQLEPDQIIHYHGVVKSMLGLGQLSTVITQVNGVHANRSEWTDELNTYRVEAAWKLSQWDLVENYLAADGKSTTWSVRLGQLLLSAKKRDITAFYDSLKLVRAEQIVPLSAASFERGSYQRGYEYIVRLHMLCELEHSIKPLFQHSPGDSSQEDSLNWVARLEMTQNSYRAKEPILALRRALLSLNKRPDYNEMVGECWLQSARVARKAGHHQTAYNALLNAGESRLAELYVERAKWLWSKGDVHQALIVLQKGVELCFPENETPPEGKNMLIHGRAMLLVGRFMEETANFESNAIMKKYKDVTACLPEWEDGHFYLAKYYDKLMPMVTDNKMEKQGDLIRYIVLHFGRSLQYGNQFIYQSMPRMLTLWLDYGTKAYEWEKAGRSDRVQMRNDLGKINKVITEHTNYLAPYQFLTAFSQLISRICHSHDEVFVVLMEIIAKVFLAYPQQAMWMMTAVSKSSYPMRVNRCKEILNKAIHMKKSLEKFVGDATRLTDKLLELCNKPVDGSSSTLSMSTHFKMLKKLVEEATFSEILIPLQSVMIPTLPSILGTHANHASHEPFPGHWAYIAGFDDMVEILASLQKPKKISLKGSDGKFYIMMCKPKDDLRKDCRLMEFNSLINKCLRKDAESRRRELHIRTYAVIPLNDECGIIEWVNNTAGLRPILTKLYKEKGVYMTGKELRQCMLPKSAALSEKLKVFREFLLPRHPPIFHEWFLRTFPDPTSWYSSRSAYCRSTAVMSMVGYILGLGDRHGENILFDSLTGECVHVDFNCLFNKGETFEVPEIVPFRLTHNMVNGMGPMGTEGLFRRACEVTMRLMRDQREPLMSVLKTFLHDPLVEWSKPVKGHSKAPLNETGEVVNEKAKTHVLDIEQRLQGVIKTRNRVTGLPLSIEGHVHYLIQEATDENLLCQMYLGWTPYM

CS(=N)(=O)c1ccc(-c2cnc(N)c(C(=O)Nc3ccccc3)n2)cc1 (centres undefined)
inhibition [1]: Dose-dependent effect
inhibition [2]: inactive
inhibition [3]: Dose-dependent effect
Ratio [4]: 28.3
inhibition [5]: Active
Ratio [6]: 21.1
inhibition [7]: inactive
inhibition [8]: inactive
Activity (Ramos): Active
inhibition [9]: Active
inhibition [10]: Active

CN=S(C)(=O)c1ccc(-c2cnc(N)c(C(=O)Nc3ccccc3)n2)cc1 (centres undefined)
inhibition [1]: Dose-dependent effect
inhibition [2]: inactive
inhibition [3]: Dose-dependent effect
Ratio [4]: 46.1
inhibition [5]: Active
Ratio [6]: 36.4
inhibition [7]: inactive
inhibition [8]: inactive
Activity (Ramos): Active
inhibition [9]: Active
inhibition [10]: Active

CS(=O)(=O)c1ccc(-c2cnc(N)c(C(=O)Nc3ccccc3)n2)cc1
inhibition [2]: inactive
Ratio [4]: 13
inhibition [5]: Active
Ratio [6]: 16.3
inhibition [7]: inactive
Activity (Ramos): Active
inhibition [10]: Active

Reference: ChEMBL document CHEMBL4020759, “Sulfoximines as ATR inhibitors: Analogs of VE-821” (2017)
